Like-named read-outs stand apart in the source and are kept apart here.
Assays:
[1] = test system: ARPE-19 cells; assay: Oxidative stress-induced apoptosis (TNF-α/H2O2), Hoechst positive cells; format: cell-based; conditions: for oxidative stress-induced apoptosis, concentration dependence: 10, 30 and 50 nM; for inhibition at 0.03 µM / inhibition at 0.05 µM: Homo sapiens, ARPE-19; for inhibition at 0.05 µM: 50 nM compound
Method: (§1) The effects of compounds of the invention on apoptotic cell death induced by oxidative stress and on Il-1β induced pro-inflammatory COX-2 gene expression in ARPE-19 cells was measured using the following protocol.
(§2) 72 h grown cells in 6 well plates were serum starved for 8 h, and then oxidative stress was induced with TNF-α/H2O2 (600 μM) for 16 h. Cells were incubated with different concentrations of compound X, compound Z, and compound 48b. Apoptotic cell death was scored by Hoechst positive cells. COX-2 (−830) promoter construct, linked to luciferase reporter gene, was used to transfect ARPE-19 cells by Fugene-6. A β-galactosidase plasmid was co-transfected as transfection control. Transfected cells were serum starved, induced by Il-1β, and incubated with different concentrations of compound X, compound Z, and compound 48b. Luciferase assays were performed using luciferin as substrate.

[2] = test system: COX-2 gene expression; assay: Il-1β induced COX-2 promoter luciferase reporter assay in ARPE-19 cells; format: cell-based; conditions: FIG. 3
Method: as §1, §2

[3] = test system: Rats; assay: Protection against ischemia reperfusion injury (coronary artery occlusion and reperfusion); format: in vivo, rat
Method: The ability of compound X, administered before reperfusion, to limit myocardial infarct size (IS) was measured using the following protocol.
Rats were anesthetized with ketamine and xylazine and underwent 30 min of coronary artery occlusion and 4 h of reperfusion. Just before reperfusion rats received compound X i.v. (0.03 mg/kg, 0.1 mg/kg or 0.3 mg/kg) or vehicle alone (control). Area at risk (AR) was assessed by blue dye and IS by triphenyltetrazoliumchloride (TTC) staining.

[4] = test system: H9C2 cells; assay: Protection against hypoxia-reoxygenation injury (trypan blue uptake, MTT); format: cell-based, rat
Method: The ability of compound X to protect cardiomyocytes against hypoxia-reoxygenation injury was measured using the following protocol.
H9C2 cells derived from embryonic rat heart tissue were incubated with compound X (0, 1, 10, 100, or 1000 nM). Cells were subjected to 16 h of hypoxia and 2 h of reoxygenation. Cell death was assessed by trypan blue (TB) uptake and cell viability by MTT (3-(4,5-dimethylthiazol-2-yl)-2,5-diphenyl tetrazolium bromide) assay.

[5] = test system: H9C2 cells; assay: as above; format: cell-based, rat; remark: listed apart in the source
[6] = 30 nM compound, TNF-α/H2O2 (600 μM) 16 h, FIG. 1, read-out: inhibition of oxidative stress-induced apoptosis
[7] = TNF-α/H2O2 (600 μM) 16 h, FIG. 1
[8] = i.v. 0.03-0.3 mg/kg, anesthetized rats

SMILES | oxidative stress-induced apoptosis, concentration dependence [1] | inhibition at 0.03 µM [1, 6] [%] | inhibition at 0.05 µM [1, 7] [%] | expression of pro-inflammatory COX-2 [2] | inhibition at 0.03 µM ([1]; each compound at 30 nM, plus compound 48b, FIG. 2, read-out: combined inhibition of apoptosis upon addition of compound 48b) [%] | myocardial infarct size (IS) ([3]; i.v. 0.03, 0.1 or 0.3 mg/kg just before reperfusion, 30 min occlusion, 4 h reperfusion, FIG. 4) | heart rate [3, 8] | mean blood pressure [3, 8] | TB (%) (trypan blue positive cells) ([4]; 1.0 nM, 16 h hypoxia, 2 h reoxygenation) | TB (%) (trypan blue positive cells) ([4]; 10 nM, 16 h hypoxia, 2 h reoxygenation) | TB (%) (trypan blue positive cells) ([4]; 100 nM, 16 h hypoxia, 2 h reoxygenation) | TB (%) (trypan blue positive cells) ([4]; 1000 nM, 16 h hypoxia, 2 h reoxygenation) | viability at 0.001 µM ([4]; Rattus norvegicus, H9c2, 1.0 nM, 16 h hypoxia, 2 h reoxygenation, read-out: MTT (%) (cell viability)) | viability at 0.01 µM ([4]; Rattus norvegicus, H9c2, 10 nM, 16 h hypoxia, 2 h reoxygenation, read-out: MTT (%) (cell viability)) | viability at 0.1 µM ([4]; Rattus norvegicus, H9c2, 100 nM, 16 h hypoxia, 2 h reoxygenation, read-out: MTT (%) (cell viability)) | viability at 1 µM ([4]; Rattus norvegicus, H9c2, 1000 nM, 16 h hypoxia, 2 h reoxygenation, read-out: MTT (%) (cell viability)) | concentration of maximal effect ([4]; tested 1-1000 nM) [nM] | apoptosis [5]
CC/C=C\C[C@H](O)\C=C/C=C/C=C/[C@H](O)C/C=C\C/C=C\CCC(=O)O [Compound 48b] | inhibit oxidative stress-induced apoptosis in a concentration dependent manner | ~45 | ~80 | stronger inhibition |  |  |  |  |  |  |  |  |  |  |  |  |  | 
CC[C@@H](O)/C=C/C=C\C[C@@H](O)/C=C/C=C/C=C\[C@@H](O)CCCC(=O)O [Compound X] | inhibit oxidative stress-induced apoptosis in a concentration dependent manner | ~20 | ~30 | inhibited | ~60 | dose-dependently limited IS | did not affect | did not affect | 35.5 ± 0.4 | 30.3 ± 0.4 | 23.8 ± 0.9 | 24.1 ± 0.3 | 50.1 ± 0.8 | 62.6 ± 1.2 | 74.6 ± 0.9 | 70.5 ± 0.5 | 100 | decreased apoptosis
